Experiments:
[1] = 101 kPa, Liquid; for viscosity: Capillary tube (Ostwald / Ubbelohde) method; for mass density: Pycnometric method
[2] = xn = mol fraction of the nth substance listed; settings: 101 kPa, Liquid; for viscosity: Capillary tube (Ostwald / Ubbelohde) method; for mass density: Pycnometric method

COCC(C)O (configuration not stated) [1-methoxy-2-propanol]
[1]
Settings	mass density [kg/m3]	viscosity [mPa·s]
298.15 K	915.9	1.707
308.15 K	907.1	1.306
318.15 K	896.9	1.069

COCC(C)O (configuration not stated) [1-methoxy-2-propanol] + C=C(C)C(=O)O
[2], x1 = 1
Settings	mass density [kg/m3]	viscosity [mPa·s]
298.15 K	915.9	1.707
308.15 K	907.1	1.306
318.15 K	896.9	1.069

COCC(C)O (configuration not stated) [1-methoxy-2-propanol] + C=C(C)C(=O)OCCO
[2], x1 = 1
Settings	mass density [kg/m3]	viscosity [mPa·s]
298.15 K	915.9	1.707
308.15 K	907.1	1.306
318.15 K	896.9	1.069

COCC(C)O (configuration not stated) [1-methoxy-2-propanol] + C=C(C)C(=O)OCc1ccccc1
[2], x1 = 1
Settings	mass density [kg/m3]	viscosity [mPa·s]
298.15 K	915.9	1.707
308.15 K	907.1	1.306
318.15 K	896.9	1.069

C=C(C)C(=O)OCCO [2-hydroxyethyl 2-methyl-2-propenoate]
[1]
Settings	mass density [kg/m3]	viscosity [mPa·s]
298.15 K	1067.1	5.784
308.15 K	1057.7	4.194
318.15 K	1048.6	3.181

C=C(C)C(=O)OCCO [2-hydroxyethyl 2-methyl-2-propenoate] + COCC(C)O
[2]
Settings	mass density, 298.15 K [kg/m3]	mass density, 308.15 K [kg/m3]	mass density, 318.15 K [kg/m3]	viscosity, 298.15 K [mPa·s]	viscosity, 308.15 K [mPa·s]	viscosity, 318.15 K [mPa·s]
x2 = 0	1067.1	1057.7	1048.6	5.784	4.194	3.181
x2 = 0.1	1055.2	1046.2	1037.8	5.12	3.747	2.869
x2 = 0.2	1042.8	1034.1	1025.5	4.607	3.408	2.623
x2 = 0.3	1029.9	1021.2	1012.6	4.13	3.065	2.373
x2 = 0.4	1016.3	1007.5	998.9	3.656	2.757	2.148
x2 = 0.5	1001.7	993	984.4	3.256	2.477	1.947
x2 = 0.6	986.2	977.6	969	2.869	2.208	1.753
x2 = 0.7	969.8	961.5	952.8	2.496	1.944	1.559
x2 = 0.8	952.7	944.5	935.5	2.208	1.73	1.395
x2 = 0.9	934.8	926.6	917.3	1.933	1.528	1.237

C=C(C)C(=O)O [2-methyl-2-propenoic acid]
[1]
Settings	mass density [kg/m3]	viscosity [mPa·s]
298.15 K	1009.5	1.267
308.15 K	999.4	1.078
318.15 K	989.2	0.945

C=C(C)C(=O)O [2-methyl-2-propenoic acid] + COCC(C)O
[2]
Settings	mass density, 298.15 K [kg/m3]	mass density, 308.15 K [kg/m3]	mass density, 318.15 K [kg/m3]	viscosity, 298.15 K [mPa·s]	viscosity, 308.15 K [mPa·s]	viscosity, 318.15 K [mPa·s]
x2 = 0	1009.5	999.4	989.2	1.267	1.078	0.945
x2 = 0.1	1000.9	991.8	982.4	1.376	1.163	1.002
x2 = 0.2	992	983.2	974.2	1.659	1.372	1.157
x2 = 0.3	983.5	974.9	966.1	1.982	1.577	1.312
x2 = 0.4	975.3	966.5	957.5	2.124	1.702	1.394
x2 = 0.5	966.6	957.8	948.9	2.233	1.762	1.429
x2 = 0.6	957.5	948.7	940.2	2.255	1.77	1.432
x2 = 0.7	947.3	938.6	930.3	2.14	1.685	1.361
x2 = 0.8	936.9	928.3	919.9	1.969	1.554	1.258
x2 = 0.9	926.2	917.8	909.1	1.809	1.431	1.165

C=C(C)C(=O)OCc1ccccc1 [benzyl methacrylate]
[1]
Settings	mass density [kg/m3]	viscosity [mPa·s]
298.15 K	1034.7	2.302
308.15 K	1025.8	1.885
318.15 K	1017	1.58

C=C(C)C(=O)OCc1ccccc1 [benzyl methacrylate] + COCC(C)O
[2]
Settings	mass density, 298.15 K [kg/m3]	mass density, 308.15 K [kg/m3]	mass density, 318.15 K [kg/m3]	viscosity, 298.15 K [mPa·s]	viscosity, 308.15 K [mPa·s]	viscosity, 318.15 K [mPa·s]
x2 = 0	1034.7	1025.8	1017	2.302	1.885	1.58
x2 = 0.1	1026.8	1018.1	1009.5	2.194	1.806	1.52
x2 = 0.2	1018.6	1010.1	1001.4	2.09	1.716	1.441
x2 = 0.3	1009.8	1001.4	992.5	1.99	1.628	1.364
x2 = 0.4	1000.2	991.8	982.8	1.895	1.538	1.291
x2 = 0.5	989.7	981.3	972.2	1.8	1.465	1.228
x2 = 0.6	978.1	969.7	960.5	1.731	1.406	1.166
x2 = 0.7	965.2	956.8	947.5	1.677	1.354	1.115
x2 = 0.8	950.9	942.3	932.7	1.633	1.312	1.084
x2 = 0.9	934.6	925.9	916	1.64	1.308	1.077

— the NIST ThermoML archive (doi:10.1021/je060288t)
